Source: ChEMBL document CHEMBL1143442, “Inhibitors of the tyrosine kinase EphB4. Part 2: structure-based discovery and optimisation of 3,5-bis substituted anilinopyrimidines” (Bioorg Med Chem Lett, 2008)

Columns and labels:
[1] = target: T1, Ephrin type-B receptor 4 (Homo sapiens, UniProt P54760); assay: Inhibition of Myc-His-tagged EphB4 expressed in CHOK1 cells assessed as phosphorylation by ELISA; assay type: cell-based, CHO-K1
T1 sequence (P54760 whole entry): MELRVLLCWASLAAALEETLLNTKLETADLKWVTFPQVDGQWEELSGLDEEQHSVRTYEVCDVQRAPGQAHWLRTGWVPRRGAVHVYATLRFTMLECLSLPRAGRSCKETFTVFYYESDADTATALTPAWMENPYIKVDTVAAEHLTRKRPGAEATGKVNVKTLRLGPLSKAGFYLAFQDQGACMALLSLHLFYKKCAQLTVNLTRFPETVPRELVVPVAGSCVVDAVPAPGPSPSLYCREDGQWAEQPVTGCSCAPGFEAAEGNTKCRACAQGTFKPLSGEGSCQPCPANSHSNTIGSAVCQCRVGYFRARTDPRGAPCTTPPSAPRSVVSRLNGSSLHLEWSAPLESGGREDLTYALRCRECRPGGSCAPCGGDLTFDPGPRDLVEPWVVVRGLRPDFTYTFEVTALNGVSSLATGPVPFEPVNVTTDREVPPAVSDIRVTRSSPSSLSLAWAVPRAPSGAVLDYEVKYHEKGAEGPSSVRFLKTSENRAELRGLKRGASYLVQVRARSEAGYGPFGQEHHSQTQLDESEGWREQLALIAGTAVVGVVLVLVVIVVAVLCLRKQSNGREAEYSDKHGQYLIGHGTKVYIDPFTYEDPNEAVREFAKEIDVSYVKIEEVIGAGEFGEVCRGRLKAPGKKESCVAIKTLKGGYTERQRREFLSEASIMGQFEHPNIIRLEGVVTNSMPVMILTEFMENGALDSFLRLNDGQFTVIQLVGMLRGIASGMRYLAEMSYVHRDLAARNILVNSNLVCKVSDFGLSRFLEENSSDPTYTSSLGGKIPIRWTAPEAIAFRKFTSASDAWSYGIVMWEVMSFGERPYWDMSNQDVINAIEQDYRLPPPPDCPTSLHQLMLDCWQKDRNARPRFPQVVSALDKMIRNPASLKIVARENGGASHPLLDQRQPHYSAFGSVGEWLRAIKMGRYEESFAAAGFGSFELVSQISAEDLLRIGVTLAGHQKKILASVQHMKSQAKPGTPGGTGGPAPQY

[2] = target: T1, Ephrin type-B receptor 4; assay: Inhibition of EphB4

IC50 [1] | IC50 [2] | Structure (SMILES)
> 30000 nM | 370 nM | CS(=O)(=O)Nc1cc(Nc2nccc(Nc3c(Cl)ccc4c3OCO4)n2)cc(C(N)=O)c1
209 nM | 114 nM | CS(=O)(=O)c1cc(Nc2nccc(Nc3c(Cl)ccc4c3OCO4)n2)cc(S(C)(=O)=O)c1
14100 nM | 1 nM | CS(=O)(=O)Nc1cc(Nc2nccc(Nc3c(Cl)ccc4c3OCO4)n2)cc(S(N)(=O)=O)c1
7170 nM | 15 nM | CS(=O)(=O)Nc1cc(Nc2nccc(Nc3c(Cl)ccc4c3OCO4)n2)cc(NS(C)(=O)=O)c1
2050 nM | 12 nM | CS(=O)(=O)Nc1cc(Nc2nccc(Nc3c(Cl)ccc4c3OCO4)n2)cc(S(C)(=O)=O)c1

More lines, now with the values behind:

Structure (SMILES) | IC50 [1] | IC50 [2]
NS(=O)(=O)c1cccc(Nc2nccc(Nc3c(Cl)ccc4c3OCO4)n2)c1 | 172 nM | –
NC(=O)c1cc(Nc2nccc(Nc3c(Cl)ccc4c3OCO4)n2)cc(C(N)=O)c1 | > 30000 nM | 77 nM
CS(=O)(=O)Nc1cc(Nc2nccc(Nc3c(Cl)ccc4c3OCO4)n2)cc(N2CCOCC2)c1 | 170 nM | 2 nM
NC(=O)c1cc(Nc2nccc(Nc3c(Cl)ccc4c3OCO4)n2)cc(N2CCOCC2)c1 | 887 nM | 13 nM
NC(=O)c1cccc(Nc2nccc(Nc3c(Cl)ccc4c3OCO4)n2)c1 | 900 nM | –
CS(=O)(=O)c1cc(Nc2nccc(Nc3c(Cl)ccc4c3OCO4)n2)cc(C(N)=O)c1 | 22200 nM | 23 nM
CS(=O)(=O)c1cc(Nc2nccc(Nc3c(Cl)ccc4c3OCO4)n2)cc(N2CCOCC2)c1 | 32 nM | 2 nM
